Earlier results, collected in patent US9374996B2, “Agroformulation comprising copolymer of acrylic acid, poly(alkylene glycol) (meth)acrylate, and alkyl (meth)acrylate” (priority 2012, dated 2016).
≈ marks a conversion by molar mass, not a printed value.

Settings: at 20° C.

Cn1cc(C(=O)Nc2ccccc2-c2cc(F)c(F)c(F)c2)c(C(F)F)n1 [fluxapyroxad]
solubility in water: 3.88 µg/mL (≈ 10.2 µM)
